Source: PMC3896336, “Discovery of a Novel Target for the Dysglycemic Chromogranin A Fragment Pancreastatin: Interaction with the Chaperone GRP78 to Influence Metabolism” (PLoS ONE, 2014)
“Also recorded” adds a separate entry of the source. Where no end group is shown, it is not given here.

How the values were obtained:
[1] = test system: human G6P-ase promoter-luciferase reporter, HepG2 hepatocytes; experiment: G6Pase promoter-luciferase reporter activity in HepG2 hepatocytes; assay type: cell-based; conditions: for effect on reduction of G6Pase promoter activity by GRP78 over-expression: PST 100 nM, HepG2 with pCMV-GRP78, Fig. 6B; for effect on reduction of G6Pase promoter activity by GRP78 over-expression / basal G6Pase-luciferase promoter activity with GRP78 ATPase inhibitor: VER-155008 1 µM or ADP 10 µM; for basal G6Pase-luciferase promoter activity with GRP78 ATPase inhibitor: HepG2, Fig. 6B
Method: The human G6P-ase promoter-luciferase reporter plasmid has been described. The GRP78 (BIP) promoter-luciferase reporter was a gift from Bruce M. Spiegelman (Harvard Medical School). The pCMV promoter-driven human GRP78 (HSPA5) expression plasmid was from Origene <www.origene.com/>. pSV-Beta-Gal (a transfection efficiency control plasmid, in which the SV40 early promoter drives expression of beta-galactosidase) was obtained from Promega <www.promega.com>.
Cells were plated on 24 well tissue culture plates the day before transfection. 0.5 to 1.0 µg of total DNA per well was used for transfection with Transfectin (BioRad). In some experiments, pSV-Beta-Gal (Promega; in which the SV40 early promoter drives expression of beta-galactosidase) was co-transfected as a transfection efficiency control. After 5 hrs supernatants were removed and fresh media containing different compounds as mentioned in the respective figures were added. 18 hrs after transfection, supernatants were removed and cells were lysed in passive lysis buffer (Promega) and the luciferase and beta-galactosidase activity were measured. Luciferase activity was normalized by beta-galactosidase as well as cellular protein, determined by dye-binding (coomassie G-250; BioRad).
Figure 5 PST acts on both uptake and mobilization steps for glucose: Effects on cellular glucose metabolism and insulin action. (A) PST and glucose uptake. Mouse 3T3-L1 cells were induced to differentiate into adipocytes, and 7–10 days post-differentiation glucose uptake was measured by incubating cells with 2-deoxy-[^3H]-glucose in the presence or absence of PST (100 nM), insulin (100 nM), or insulin plus PST (100 nM each). (B) Glucose mobilization and PST: Effects on expression of the gluconeogenic/glycogenolytic enzyme G6Pase (glucose-6-phosphatase). Human HepG2 hepatocytes were transfected with a glucose-6-phosphatase (G6P-ase)→luciferase reporter plasmid along with a beta gal reporter plasmid as mentioned in the experimental procedures, and 5 hrs after transfection cells were treated with PST (100 nM), insulin (100 nM), or both insulin and PST (100 nM each). Cells were harvested at 18–20 hrs after transfection to measure luciferase activity, beta gal activity and protein.
(§1) Figure 6 Role of the gluconeogenic/glycogenolytic enzyme G6Pase: Response to PST, GRP78, and inhibition of GRP78's ATPase enzymatic activity. (A) G6Pase expression, PST, and GRP78. Human HepG2 hepatocytes were transfected with G6P-ase→luciferase, along with pCMV-GRP78 or an empty vector (pCMV promoter without insert). 5 hrs after transfection, cells were treated with PST (100 nM) itself (versus mock), or by UPR activation (tunicamycin, 5 µg/mL; or thapsigargin, 0.3 µM). Cells were harvested at 18–20 hrs to measure luciferase activity and protein. (B) G6Pase expression during ATPase enzymatic activity inhibition of GRP78. Human HepG2 hepatocytes were transfected as in (A), and 5 hrs later were treated with the GRP78 ATPase inhibitors VER-155008 (1 µM), ADP (10 µM), or PST (100 nM). Cells were harvested at 18–20 hrs to measure luciferase activity and protein. (C) GRP78 expression: Visualization by immunoblot. Changes in GRP78 expression are shown by anti-GRP78 immunoblot (control: anti-actin), during either UPR activation (by thapsigargin 0.3 µM or tunicamycin 5 µg/mL), or exogenous over-expression (transfection of pCMV-GRP78).

GRP78 (HSPA5, BIP) = experiment: Ligand affinity isolation of PST binding protein from mouse liver membranes (biotinylated peptide as bait, streptavidin agarose, SDS-PAGE, LC-MS/MS); conditions: control ligand affinity experiment, immobilized biotinylated catestatin (human CHGA352–372), liver homogenate; results not shown
db/db mice = test system: db/db mice; set-up: method as in PMID 16931765; conditions: ref [38]; cited from earlier work
[2] = test system: GRP78 protein expression, HepG2 hepatocytes; experiment: GRP78 protein expression by anti-GRP78 immunoblot in hepatocytes; assay type: cell-based, human; conditions: UPR activation by tunicamycin 5 µg/mL or thapsigargin 0.3 µM; Fig. 6C
Method: as §1

cellular glucose uptake = conditions: naturally occurring human variant; ref [14]; cited from earlier work
From the text: The activity of PST as a regulatory gastroenteropancreatic peptide has been established in the light of a variety of biological effects in a number of tissues [6]–[9], including its role in modulation of energy metabolism, with a general counter-regulatory effect to insulin. […] Metabolic effects of PST have been c ...

insulin
suppression of PST-induced activation of the G6Pase promoter ([1]; insulin 100 nM plus PST 100 nM, HepG2, Fig. 5B): ~40%

catestatin
pull down of GRP78 (GRP78 (HSPA5, BIP)): did not pull down the GRP78 protein

O=C(O)CCCc1ccccc1 [4-phenylbutyric acid (PBA), 4-phenylbutyric acid]
ER stress, glucose homeostasis and insulin sensitivity (db/db mice): reduced ER stress, with restored glucose homeostasis and improved insulin sensitivity

N#Cc1ccc(COC[C@H]2O[C@@H](n3c(NCc4ccc(Cl)c(Cl)c4)nc4c(N)ncnc43)[C@H](O)[C@@H]2O)cc1 [VER-155008]
effect on reduction of G6Pase promoter activity by GRP78 over-expression [1]: could not fully overcome the effect of GRP78 over-expression; also recorded: could still be partially reversed
basal G6Pase-luciferase promoter activity with GRP78 ATPase inhibitor [1]: basal G6Pase-luciferase promoter activity rose (Fig. 6B) to a level comparable to PST activation

Nc1ncnc2c1ncn2[C@@H]1O[C@H](COP(=O)(O)OP(=O)(O)O)[C@@H](O)[C@H]1O [ADP, adenosine 5′-diphosphate]
effect on reduction of G6Pase promoter activity by GRP78 over-expression [1]: could not fully overcome the effect of GRP78 over-expression; also recorded: could still be partially reversed
basal G6Pase-luciferase promoter activity with GRP78 ATPase inhibitor [1]: basal G6Pase-luciferase promoter activity rose (Fig. 6B) to a level comparable to PST activation

C/C=C(/C)C(=O)O[C@H]1C(C)=C2[C@H]([C@@H]1OC(=O)CCCCCCC)[C@@](C)(OC(C)=O)C[C@H](OC(=O)CCC)[C@@]1(O)[C@H]2OC(=O)[C@@]1(C)O [thapsigargin]
increase in GRP78 protein expression as compared to untreated cells [2]: ~15 fold

C[C@H](CCC(=O)NCCS(=O)(=O)O)[C@H]1CC[C@H]2[C@@H]3[C@@H](O)C[C@@H]4C[C@H](O)CC[C@]4(C)[C@H]3CC[C@]12C [TUDCA, tauroursodeoxycholic acid]
ER stress, glucose homeostasis and insulin sensitivity (db/db mice): reduced ER stress, with restored glucose homeostasis and improved insulin sensitivity

tunicamycin
increase in GRP78 protein expression as compared to untreated cells [2]: ~15 fold

Gly297Ser: naturally occurring human PST variant, Gly297Ser in the functionally important carboxyl terminus of the peptide (SEALAVDGAGKPGAEEAQDPEGKGEQEHSQQKEEEEEMAVVPQSLFRG; ends and bridges not checked; UniProt P10645 272-319, looked up, variant G297S)
potency to inhibit cellular glucose uptake (cellular glucose uptake): substantially increasing its potency to inhibit cellular glucose uptake
